Experimental data: patent US10500166B2, “Methods for the treatment of erectile dysfunction using fispemifene” (QUATRX PHARMACEUTICALS, priority 2007, dated 2019)

What was measured:
[1] = Phase I repeated dose study 101-50202: safety and tolerability; assay type: in vivo, human
Description: A suitable dosage is expected to be in a range of about 5 mg/day to about 1500 mg/day. In a phase I repeated dose study, twenty-three healthy men aged 50 to 70 years received daily 10 mg, 30 mg 100 mg and 300 mg dosages of fispemifene for 28 days. […] All other adverse events were single cases. Fispemifene at the 100 and 300 mg/day dose levels increased serum total testosterone levels 32% and 75% respectively. Thus, a preferred dosage range of fispemifene to treat ED is expected to be 10 to 1000 mg/day.
Fispemifene has been studied in two phase I studies in humans—in a single dose and a repeated dose study. Effect of fispemifene on hormone levels was one main focus of the repeated dose study. The phase I repeated dose study (number 101-50202) was a randomized, double-blind, placebo-controlled 28-day dose-escalation study performed in 31 healthy, elderly men, aged 50-68 years. The main objective of the study was to investigate the tolerability, safety and pharmacokinetics of fispemifene after repeated oral doses, but the study focused also on the effects of fispemifene on serum free and total testosterone, estradiol, and other relevant hormones. The fispemifene doses 10, 30, 100 and 300 mg per day and placebo were administered once every morning as capsules containing 10 mg or 100 mg of fispemifene, or placebo.
The variables for safety and tolerability were adverse events, vital signs, 12-lead ECG, clinical laboratory evaluations, physical examination, ultrasound examinations (mammary glands) and inhibin B. For pharmacokinetics, the concentrations of fispemifene and its metabolite(s) were to be evaluated. For pharmacodynamics, serum concentrations of FSH, LH, estradiol, testosterone, SHBG, prolactin, aldosterone, cortisol and TSH before and during treatment were measured and compared with the concentrations in the placebo-group.

[2] = system: total testosterone; assay: Example 3 study in hypogonadal men: morning serum total testosterone (ITT); assay type: in vivo, human
Description: A randomized, double-blind, placebo controlled, parallel-group study of once-daily doses of fispemifene (100, 200, and 300 mg/day) given for 4 weeks was conducted in a population of hypogonadal men. Subjects were required to meet all of the following inclusion criteria at screening and prior to randomization to be eligible for the study:
There were 77 subjects total. The number of subjects randomized to the 100 mg fispemifene, 200 mg fispemifene, 300 mg fispemifene, and placebo arms were 21, 21, 19, and 16, respectively.
Subjects were randomly assigned to one of four treatment groups in a 1:1:1:1 ratio: • Treatment A (100 mg): fispemifene 100 mg+placebo+placebo; • Treatment B (200 mg): fispemifene 100 mg+fispemifene 100 mg+placebo; • Treatment C (300 mg): fispemifene 100 mg+fispemifene 100 mg+fispemifene 100 mg; and • Treatment D (Placebo): placebo+placebo+placebo.
Subjects took one dose (three capsules) of study medication once a day at home for 4 weeks. Capsules were to be taken in the morning immediately after breakfast, with the exception of the morning of the Week 4 visit. Capsules were not to be taken on the morning of the Week 4 visit because trough plasma levels of fispemifene were determined by a blood sample taken at this visit. Each subject was randomly assigned to treatment with one of the 3 different dose regimens of fispemifene or placebo vehicle. Each subject received a 4 week supply of study drug.
Blood samples were taken from the subjects within 1 week prior to dosing with study drug to establish baseline values; after 2 and 4 weeks of randomization; and 2 weeks after the last dose of study drug. Serum was prepared from those samples and used to determine the mean % change from baseline in total testosterone, free testosterone, SHBG (sex hormone-binding globulin), DHT (dihydrotestosterone), E2 (estradiol), LH (luteinizing hormone), FSH (follicle stimulating hormone), and inhibin B.
The primary efficacy endpoint was defined as percent change from baseline in morning total testosterone levels at Week 4. The intent-to-treat (“ITT”) population was the primary population for analysis. The secondary efficacy endpoints included:
2. Percent change from baseline in total testosterone levels at Weeks 2 and 6; and […]

[3] = 100 mg/day, Week 6 (2 weeks after discontinuation)
[4] = 100 mg/day, to Week 6 (2 weeks after discontinuation)
[5] = 200 mg/day, Week 6 (2 weeks after discontinuation)
[6] = 200 mg/day, to Week 6 (2 weeks after discontinuation)
[7] = 300 mg/day, Week 6 (2 weeks after discontinuation)
[8] = 300 mg/day, to Week 6 (2 weeks after discontinuation)

OCCOCCOc1ccc(/C(=C(/CCCl)c2ccccc2)c2ccccc2)cc1 [Fispemifene, (Z)-2-{2-[4-(4-Chloro-1,2-diphenylbut-1-enyl)phenoxy]ethoxy}ethanol]
adverse events reported more than once ([1]; 10, 30, 100 and 300 mg daily for 28 days): upper respiratory tract infection, nausea and abdominal pain | tolerability ([1]; 10, 30, 100 and 300 mg daily for 28 days, all dose levels): well tolerated | safety concerns ([1]; any dose (10-300 mg/day)): no safety concerns | Total Testosterone, Max ([2]; 100 mg/day, Baseline (Visit 2)): 347.0 ng/dL | Total Testosterone, Mean ± SD ([2]; 100 mg/day, Baseline (Visit 2)): 248.6 ± 68.90 ng/dL | Total Testosterone, Median ([2]; 100 mg/day, Baseline (Visit 2)): 266.0 ng/dL | Total Testosterone, Min ([2]; 100 mg/day, Baseline (Visit 2)): 101.0 ng/dL | Total Testosterone, Max ([2]; 100 mg/day, Week 2): 585.0 ng/dL | Total Testosterone, Mean ± SD ([2]; 100 mg/day, Week 2): 369.9 ± 88.23 ng/dL | Total Testosterone, Median ([2]; 100 mg/day, Week 2): 350.0 ng/dL | Total Testosterone, Min ([2]; 100 mg/day, Week 2): 235.0 ng/dL | Total Testosterone, Max ([2]; 100 mg/day, Week 4): 535.0 ng/dL | Total Testosterone, Mean ± SD ([2]; 100 mg/day, Week 4): 371.6 ± 83.36 ng/dL | Total Testosterone, Median ([2]; 100 mg/day, Week 4): 353.0 ng/dL | Total Testosterone, Min ([2]; 100 mg/day, Week 4): 246.0 ng/dL | Total Testosterone, Max [2, 3]: 414.0 ng/dL | Total Testosterone, Mean ± SD [2, 3]: 271.9 ± 69.21 ng/dL | Total Testosterone, Median [2, 3]: 265.0 ng/dL | Total Testosterone, Min [2, 3]: 121.0 ng/dL | Total Testosterone, % Change from Baseline, Max ([2]; 100 mg/day, to Week 2): 133% | Total Testosterone, % Change from Baseline, Median ([2]; 100 mg/day, to Week 2): 45% | Total Testosterone, % Change from Baseline, Min ([2]; 100 mg/day, to Week 2): 14% | Total Testosterone, % Change from Baseline, Max ([2]; 100 mg/day, to Week 4): 198% | Total Testosterone, % Change from Baseline, Median ([2]; 100 mg/day, to Week 4): 35% | Total Testosterone, % Change from Baseline, Min ([2]; 100 mg/day, to Week 4): 7% | Total Testosterone, % Change from Baseline, Max [2, 4]: 119% | Total Testosterone, % Change from Baseline, Median [2, 4]: 11% | Total Testosterone, Max ([2]; 200 mg/day, Baseline (Visit 2)): 334.0 ng/dL | Total Testosterone, Mean ± SD ([2]; 200 mg/day, Baseline (Visit 2)): 249.1 ± 60.90 ng/dL | Total Testosterone, Median ([2]; 200 mg/day, Baseline (Visit 2)): 253.0 ng/dL | Total Testosterone, Min ([2]; 200 mg/day, Baseline (Visit 2)): 133.0 ng/dL | Total Testosterone, Max ([2]; 200 mg/day, Week 2): 497.0 ng/dL | Total Testosterone, Mean ± SD ([2]; 200 mg/day, Week 2): 370.0 ± 72.44 ng/dL | Total Testosterone, Median ([2]; 200 mg/day, Week 2): 354.0 ng/dL | Total Testosterone, Min ([2]; 200 mg/day, Week 2): 238.0 ng/dL | Total Testosterone, Max ([2]; 200 mg/day, Week 4): 626.0 ng/dL | Total Testosterone, Mean ± SD ([2]; 200 mg/day, Week 4): 387.3 ± 107.39 ng/dL | Total Testosterone, Median ([2]; 200 mg/day, Week 4): 372.0 ng/dL | Total Testosterone, Min ([2]; 200 mg/day, Week 4): 241.0 ng/dL | Total Testosterone, Max [2, 5]: 539.0 ng/dL | Total Testosterone, Mean ± SD [2, 5]: 276.2 ± 97.28 ng/dL | Total Testosterone, Median [2, 5]: 240.0 ng/dL | Total Testosterone, Min [2, 5]: 162.0 ng/dL | Total Testosterone, % Change from Baseline, Max ([2]; 200 mg/day, to Week 2): 142% | Total Testosterone, % Change from Baseline, Median ([2]; 200 mg/day, to Week 2): 48% | Total Testosterone, % Change from Baseline, Min ([2]; 200 mg/day, to Week 2): 17% | Total Testosterone, % Change from Baseline, Median ([2]; 200 mg/day, to Week 4): 60% | Total Testosterone, % Change from Baseline, Max [2, 6]: 79% | Total Testosterone, % Change from Baseline, Median [2, 6]: 11% | Total Testosterone, Max ([2]; 300 mg/day, Baseline (Visit 2)): 348.0 ng/dL | Total Testosterone, Mean ± SD ([2]; 300 mg/day, Baseline (Visit 2)): 234.2 ± 77.69 ng/dL | Total Testosterone, Median ([2]; 300 mg/day, Baseline (Visit 2)): 246.0 ng/dL | Total Testosterone, Min ([2]; 300 mg/day, Baseline (Visit 2)): 17.0 ng/dL | Total Testosterone, Max ([2]; 300 mg/day, Week 2): 526.0 ng/dL | Total Testosterone, Mean ± SD ([2]; 300 mg/day, Week 2): 379.2 ± 122.04 ng/dL | Total Testosterone, Median ([2]; 300 mg/day, Week 2): 427.0 ng/dL | Total Testosterone, Min ([2]; 300 mg/day, Week 2): 13.0 ng/dL | Total Testosterone, Max ([2]; 300 mg/day, Week 4): 643.0 ng/dL | Total Testosterone, Mean ± SD ([2]; 300 mg/day, Week 4): 430.7 ± 163.39 ng/dL | Total Testosterone, Median ([2]; 300 mg/day, Week 4): 479.0 ng/dL | Total Testosterone, Min ([2]; 300 mg/day, Week 4): 8.0 ng/dL | Total Testosterone, Max [2, 7]: 423.0 ng/dL | Total Testosterone, Mean ± SD [2, 7]: 279.2 ± 102.84 ng/dL | Total Testosterone, Median [2, 7]: 293.0 ng/dL | Total Testosterone, Min [2, 7]: 16.0 ng/dL | Total Testosterone, % Change from Baseline, Max ([2]; 300 mg/day, to Week 2): 101% | Total Testosterone, % Change from Baseline, Median ([2]; 300 mg/day, to Week 2): 65% | Total Testosterone, % Change from Baseline, Max ([2]; 300 mg/day, to Week 4): 181% | Total Testosterone, % Change from Baseline, Median ([2]; 300 mg/day, to Week 4): 80% | Total Testosterone, % Change from Baseline, Max [2, 8]: 77% | Total Testosterone, % Change from Baseline, Median [2, 8]: 14% | effect on serum total testosterone concentration ([2]; hypogonadal men, within 14 days from the start of treatment, maintained during treatment): clinically and statistically significant and dose dependent increase to, but not beyond, the normal range
